This is an account of results in ChEMBL document CHEMBL1134893, “Novel 20-carbonate linked prodrugs of camptothecin and 9-aminocamptothecin designed for activation by tumour-associated plasmin” (2002).

For the first experiment, the system named is IGROV-1. The experiment is described as follows: Inhibitory dose required against IGROV human tumor cell lines. Type of experiment: functional. Particulars: read-out: ID50 (the source's name).
As to `CC[C@@]1(OC(=O)OCc2ccc(NC(=O)[C@H](CCCCN)NC(=O)[C@H](Cc3ccccc3)NC(=O)[C@@H](C)N)cc2)C(=O)OCc2c1cc1n(c2=O)Cc2cc3ccccc3nc2-1.Cl.Cl`, the IC50 is 0.02 µg/mL.

With `CC[C@@]1(OC(=O)OCc2ccc(NC(=O)[C@H](CCCCN)NC(=O)[C@H](Cc3ccccc3)NC(=O)[C@@H](C)N)cc2)C(=O)OCc2c1cc1n(c2=O)Cc2cc3c(N)cccc3nc2-1.Cl.Cl.Cl`, the IC50 is 0.008 µg/mL.

In the case of `CC[C@@]1(O)C(=O)OCc2c1cc1n(c2=O)Cc2cc3c(N)cccc3nc2-1` [9-AMINOCAMPTOTHECIN], the IC50 was below 0.0032 µg/mL.

Consider `CC[C@@]1(O)C(=O)OCc2c1cc1n(c2=O)Cc2cc3ccccc3nc2-1` [CAMPTOTHECIN], for which the IC50 was below 0.0032 µg/mL.

The next experiment concerns WiDr. The experiment is described as follows: Inhibitory dose required against WIDR human tumor cell lines. The experiment is classed as functional. The conditions noted are these: read-out: ID50 (the source's name).
Consider `CC[C@@]1(OC(=O)OCc2ccc(NC(=O)[C@H](CCCCN)NC(=O)[C@H](Cc3ccccc3)NC(=O)[C@@H](C)N)cc2)C(=O)OCc2c1cc1n(c2=O)Cc2cc3ccccc3nc2-1.Cl.Cl`, for which the IC50 is 0.022 µg/mL.

`CC[C@@]1(OC(=O)OCc2ccc(NC(=O)[C@H](CCCCN)NC(=O)[C@H](Cc3ccccc3)NC(=O)[C@@H](C)N)cc2)C(=O)OCc2c1cc1n(c2=O)Cc2cc3c(N)cccc3nc2-1.Cl.Cl.Cl`: the IC50 worked out at 0.007 µg/mL.

For `CC[C@@]1(O)C(=O)OCc2c1cc1n(c2=O)Cc2cc3c(N)cccc3nc2-1` [9-AMINOCAMPTOTHECIN], the IC50 was below 0.0032 µg/mL.

Regarding `CC[C@@]1(O)C(=O)OCc2c1cc1n(c2=O)Cc2cc3ccccc3nc2-1` [CAMPTOTHECIN], the IC50 is below 0.0032 µg/mL.

Another experiment relates to M19-MEL. Nature of the experiment: Inhibitory dose required against M19 human tumor cell lines. The experiment is classed as functional. Particulars: read-out: ID50 (the source's name).
As for `CC[C@@]1(OC(=O)OCc2ccc(NC(=O)[C@H](CCCCN)NC(=O)[C@H](Cc3ccccc3)NC(=O)[C@@H](C)N)cc2)C(=O)OCc2c1cc1n(c2=O)Cc2cc3ccccc3nc2-1.Cl.Cl`, the IC50 turned out to be 0.219 µg/mL.

For the compound `CC[C@@]1(OC(=O)OCc2ccc(NC(=O)[C@H](CCCCN)NC(=O)[C@H](Cc3ccccc3)NC(=O)[C@@H](C)N)cc2)C(=O)OCc2c1cc1n(c2=O)Cc2cc3c(N)cccc3nc2-1.Cl.Cl.Cl`, the IC50 amounted to 0.01 µg/mL.

In the case of `CC[C@@]1(O)C(=O)OCc2c1cc1n(c2=O)Cc2cc3c(N)cccc3nc2-1` [9-AMINOCAMPTOTHECIN], the IC50 is below 0.024 µg/mL.

Regarding `CC[C@@]1(O)C(=O)OCc2c1cc1n(c2=O)Cc2cc3ccccc3nc2-1` [CAMPTOTHECIN], the IC50 was below 0.013 µg/mL.

The next experiment has as its system A498. Nature of the experiment: Inhibitory dose required against A498 human tumor cell lines. Type of experiment: functional. Particulars: read-out: ID50 (the source's name).
In the case of `CC[C@@]1(OC(=O)OCc2ccc(NC(=O)[C@H](CCCCN)NC(=O)[C@H](Cc3ccccc3)NC(=O)[C@@H](C)N)cc2)C(=O)OCc2c1cc1n(c2=O)Cc2cc3ccccc3nc2-1.Cl.Cl`, the IC50 amounted to 0.022 µg/mL.

Take `CC[C@@]1(OC(=O)OCc2ccc(NC(=O)[C@H](CCCCN)NC(=O)[C@H](Cc3ccccc3)NC(=O)[C@@H](C)N)cc2)C(=O)OCc2c1cc1n(c2=O)Cc2cc3c(N)cccc3nc2-1.Cl.Cl.Cl`: the IC50 was 0.039 µg/mL.

Take `CC[C@@]1(O)C(=O)OCc2c1cc1n(c2=O)Cc2cc3c(N)cccc3nc2-1` [9-AMINOCAMPTOTHECIN]: the IC50 is below 0.01 µg/mL.

In the case of `CC[C@@]1(O)C(=O)OCc2c1cc1n(c2=O)Cc2cc3ccccc3nc2-1` [CAMPTOTHECIN], the IC50 is below 0.0032 µg/mL.

The next experiment relates to NCI-H226. The experiment is described as follows: Inhibitory dose required against H226 human tumor cell lines. The experiment is classed as functional. The conditions noted are these: read-out: ID50 (the source's name).
`CC[C@@]1(OC(=O)OCc2ccc(NC(=O)[C@H](CCCCN)NC(=O)[C@H](Cc3ccccc3)NC(=O)[C@@H](C)N)cc2)C(=O)OCc2c1cc1n(c2=O)Cc2cc3ccccc3nc2-1.Cl.Cl`: the IC50 was 0.111 µg/mL.

Consider `CC[C@@]1(OC(=O)OCc2ccc(NC(=O)[C@H](CCCCN)NC(=O)[C@H](Cc3ccccc3)NC(=O)[C@@H](C)N)cc2)C(=O)OCc2c1cc1n(c2=O)Cc2cc3c(N)cccc3nc2-1.Cl.Cl.Cl`, for which the IC50 is 0.021 µg/mL.

As for `CC[C@@]1(O)C(=O)OCc2c1cc1n(c2=O)Cc2cc3c(N)cccc3nc2-1` [9-AMINOCAMPTOTHECIN], the IC50 is below 0.007 µg/mL.

As to `CC[C@@]1(O)C(=O)OCc2c1cc1n(c2=O)Cc2cc3ccccc3nc2-1` [CAMPTOTHECIN], the IC50 was below 0.005 µg/mL.

Another experiment relates to EVSA-T. The experiment is described as follows: Inhibitory dose required against EVSA-T human tumor cell lines. Type of experiment: functional. The conditions noted are these: read-out: ID50 (the source's name).
Turning to `CC[C@@]1(OC(=O)OCc2ccc(NC(=O)[C@H](CCCCN)NC(=O)[C@H](Cc3ccccc3)NC(=O)[C@@H](C)N)cc2)C(=O)OCc2c1cc1n(c2=O)Cc2cc3ccccc3nc2-1.Cl.Cl`, the IC50 came to 0.049 µg/mL.

For `CC[C@@]1(OC(=O)OCc2ccc(NC(=O)[C@H](CCCCN)NC(=O)[C@H](Cc3ccccc3)NC(=O)[C@@H](C)N)cc2)C(=O)OCc2c1cc1n(c2=O)Cc2cc3c(N)cccc3nc2-1.Cl.Cl.Cl`, the IC50 stood at 0.137 µg/mL.

As to `CC[C@@]1(O)C(=O)OCc2c1cc1n(c2=O)Cc2cc3c(N)cccc3nc2-1` [9-AMINOCAMPTOTHECIN], the IC50 is below 0.0032 µg/mL.

As to `CC[C@@]1(O)C(=O)OCc2c1cc1n(c2=O)Cc2cc3ccccc3nc2-1` [CAMPTOTHECIN], the IC50 is below 0.0032 µg/mL.

The test system of the next experiment is MCF7. Nature of the experiment: Inhibitory dose required against MCF-7 human tumor cell lines. The experiment is classed as functional. The conditions noted are these: read-out: ID50 (the source's name).
Take `CC[C@@]1(OC(=O)OCc2ccc(NC(=O)[C@H](CCCCN)NC(=O)[C@H](Cc3ccccc3)NC(=O)[C@@H](C)N)cc2)C(=O)OCc2c1cc1n(c2=O)Cc2cc3ccccc3nc2-1.Cl.Cl`: the IC50 came to 0.01 µg/mL.

`CC[C@@]1(OC(=O)OCc2ccc(NC(=O)[C@H](CCCCN)NC(=O)[C@H](Cc3ccccc3)NC(=O)[C@@H](C)N)cc2)C(=O)OCc2c1cc1n(c2=O)Cc2cc3c(N)cccc3nc2-1.Cl.Cl.Cl`: the IC50 worked out at 0.019 µg/mL.

On to `CC[C@@]1(O)C(=O)OCc2c1cc1n(c2=O)Cc2cc3c(N)cccc3nc2-1` [9-AMINOCAMPTOTHECIN], for which the IC50 was below 0.0032 µg/mL.

For `CC[C@@]1(O)C(=O)OCc2c1cc1n(c2=O)Cc2cc3ccccc3nc2-1` [CAMPTOTHECIN], the IC50 is below 0.0032 µg/mL.
